# Test results published in article PMC11943723, “Synthesis and Biological Activity of Glycosyl Thiazolyl Disulfides Based on Thiacarpine, an Analogue of the Cytotoxic Alkaloid Polycarpine from the Ascidian Polycarpa aurata” (Marine Drugs, 2025).
# Counter-ions that a name gives are not always drawn.
# Experiments:
# [1] = tested on: Candida albicans (KMM 455); test: Antimicrobial activity, inhibition of microbial growth (optical density); assay type: cell-based; details: 18 h, OD 620 nm; for MIC50: Candida albicans, KMM455, read-out: Inhibition of Microbial Growth MIC50, C. albicans
# Description: (§1) The antimicrobial activity of the compounds was determined against Gram-positive bacteria Staphylococcus aureus (ATCC 21027), Gram-negative bacteria Escherichia coli (VKPM B-7935), and yeast-like fungi Candida albicans (KMM 455) (all test strains were obtained from the Collection of Marine Microorganisms KMM PIBOC FEB RAS) in liquid nutrient media. Test cultures of S. aureus, E. coli, and C. albicans were grown in Petri dishes on a solid nutrient medium (Mueller–Hinton broth with the addition of agar—16.0 g/L) at 37 °C for 24 h. The antimicrobial activity of the compounds was determined by the change in optical density and expressed as the percentage of bacterial inhibition at different concentrations of substances added to the well of the microorganism suspension, compared to the control. The compounds were dissolved in dimethyl sulfoxide (DMSO) at a concentration of 10 mM and stored at −20 °C. Before the experiment, the solution of substances in DMSO was diluted with PBS at a concentration of 0.5–100.0 µM and added to the wells so that the concentration of DMSO in the culture medium was less than 1%. Antimicrobial activity was determined in 96-well microplates in a liquid Mueller–Hinton nutrient medium. For S. aureus, E. coli, and C. albicans, a bacterial suspension of 10^6 CFU in 1 mL of the media was used, 90 μL was added to each well of the microplates and then incubated in a thermostatted shaker at 37 °C for 18 h. Inhibition of microorganism growth was assessed by measuring the optical density at 620 nm using a microplate reader (Thermo Fisher Scientific, Waltham, MA, USA) after preliminary shaking of the plates for 10 min. All experiments were performed in triplicate. Gentamicin (S. aureus and E. coli) and nitrofungin (C. albicans) were used as positive controls, and 1% DMSO in PBS was used as a negative control.
# [2] = tested on: Candida albicans (KMM 455); test: Inhibition of biofilm formation (MTT); assay type: cell-based; details: 24 h
# Description: Biofilm formation was performed according to the method described by Walencka et al., with minor modifications. The compounds were dissolved in dimethyl sulfoxide (DMSO) at a concentration of 10 mM and stored at −20 °C. Before the experiment, the solution of substances in DMSO was diluted with PBS at a concentration of 0.5–100.0 µM and added to the wells so that the concentration of DMSO in the culture medium was less than 1%. Biofilm formation was assessed in 96-well microplates in a liquid Mueller–Hinton nutrient medium. For S. aureus, E. coli, and C. albicans, a bacterial suspension of 10^6 CFU in 1 mL of medium was used, 90 μL was added to each well of the microplates and then incubated in a thermostatted shaker at 37 °C for 24 h. After incubation, the suspension of planktonic microorganisms was removed from the plate and washed with PBS. Next, 100 μL of PBS and 10 μL of MTT (3-(4,5-dimethylthiazol-2-yl)-2,5-diphenyltetrazolium bromide, MTT reagent, Sigma) stock solution (5 mg/mL) were added to the wells and incubated for 3 h at 37 °C. After incubation, all the solution was removed from the wells, 100 μL of DMSO was added, and the plate was shaken for 10 min until all formazan crystals had dissolved. The absorption was measured using a plate reader (Thermo Fisher Scientific, Waltham, MA, USA) at a wavelength of 570 nm. The activity of the substances was assessed by the change in optical density compared with that of the control. All experiments were performed in triplicate. Gentamicin (S. aureus and E. coli) and nitrofungin (C. albicans) were used as positive controls, and 1% DMSO in PBS was used as a negative control.
# HeLa (cervical cancer) = test: MTT cell viability assay, HeLa; assay type: cell-based, human; details: Homo sapiens, HeLa, 24 h, 24 h incubation, read-out: Cytotoxicity EC50, HeLa
# Text: (§2) Human erythrocytes were purchased from the blood transfusion station Vladivostok. Human breast cancer cell lines MCF-7^HTB−22, and MDA-MB-231^CRM-HTB−26, liver hepatocellular carcinoma Hep G2^HB−8065, prostate adenocarcinoma PC-3^CRL−1435, cervical adenocarcinoma HeLa^CRM-CCL−2, and normal bronchial epithelial cells BEAS-2B ^CRL−3588 were received from ATCC (Manassas, VA, USA).
# (§3) DMEM medium (Biolot, Russia) with 1% penicillin/streptomycin and 10% fetal bovine serum (FBS) (Biolot, Russia) was used for cultivation of Hep G2, PC-3, HeLa, and Beas-2b. MEM medium (Biolot, Russia) with 1% penicillin/streptomycin sulfate (Biolot, Russia) and FBS (Biolot, Russia) to a final concentration of 10% for MCF-7 and MDA-MB-231 cells.
# (§4) The effect of the studied compounds on the viability of human cancer and normal cells was determined using the MTT (3-[4,5-dimethylthiazol-2-yl]-2,5 diphenyl tetrazolium bromide) assay. Briefly, 6 × 10^3 cells per well were seeded into 96-well plates and incubated for 24 h for adhesion, followed by incubation for 24 h with different concentrations of the substances. After incubation, the medium containing the test substances was replaced with 100 µL of fresh medium. Then, 10 μL of MTT (Sigma-Aldrich, Madison, WI, USA) reagent (5 mg/mL MTT in PBS) was added into the cells and the plates for additional 4 h. Thereafter, 100 µL of SDS-HCl solution (1 g SDS/10 mL dH2O/17 µL 6N HCl) was added to each well and incubated for 18 h. The absorbance of the converted formazan dye was measured using a Multiskan FC microplate photometer (Thermo Scientific, Waltham, MA, USA) at a wavelength of 570 nm. All experiments were performed in triplicate. Cytotoxic activity was expressed as a percentage of the cell viability.
# [3] = tested on: Hep G2 (hepatocellular carcinoma); test: MTT cell viability assay, Hep G2; assay type: cell-based; details: Homo sapiens, HepG2, 24 h incubation, read-out: Cytotoxicity EC50, Hep G2
# Text: as §2, §3, §4
# [4] = tested on: MDA-MB-231 (triple-negative breast cancer); test: MTT cell viability assay, MDA-MB-231; assay type: cell-based, human; details: Homo sapiens, MDA-MB-231, 24 h, 24 h incubation, read-out: Cytotoxicity EC50, MDA-MB-231 (TNBC)
# Text: as §2, §3, §4
# [5] = MTT cell viability assay, BEAS-2B normal cells; assay type: cell-based; details: human, BEAS-2B normal bronchial epithelial cells, 24 h incubation, read-out: Cytotoxicity EC50, BEAS 2B
# Text: as §2, §3, §4
# [6] = tested on: Escherichia coli (VKPM B-7935); test: Antimicrobial activity, inhibition of microbial growth (optical density); assay type: cell-based; details: Escherichia coli; 18 h, OD 620 nm; read-out: Inhibition of Microbial Growth MIC50, E. coli
# Description: as §1
# [7] = tested on: Staphylococcus aureus (ATCC 21027); test: as above; assay type: cell-based; details: Staphylococcus aureus, ATCC21027; 18 h, OD 620 nm; read-out: Inhibition of Microbial Growth MIC50, S. aureus
# Description: as §1
SMILES,"Inhibition of Microbial Growth MIC50, C. albicans [1]","Inhibition of Biofilm Formation MIC50, C. albicans [2]",EC50 (HeLa (cervical cancer)),EC50 [3],EC50 [4],EC50 at 24 h [5],MIC50 [1],MIC50 [6],MIC50 [7]
"O=[N+]([O-])c1ccc(O)c(Cl)c1 [Nitrofungin, reference compound]",4.1 ± 0.5 µM,4.3 ± 0.4 µM,–,–,–,–,–,–,–
"COc1ccc(-c2nc(N)sc2SS[C@@H]2O[C@H](COC(C)=O)[C@@H](OC(C)=O)[C@H](OC(C)=O)[C@H]2OC(C)=O)cc1 [Compound 4a, 5-[(2,3,4,6-Tetra-O-acetyl-β-D-glucopyranosyl)disulfanyl]-2-amino-4-(4-methoxyphenyl) thiazole]",–,–,> 25 µM,> 25 µM,> 25 µM,19.9 µM,31.5 ± 3.1 µM,> 50 µM,32.5 ± 3.2 µM
"Nc1nc(-c2ccccc2)c(SS[C@@H]2OC[C@@H](O)[C@H](O)[C@H]2O)s1 [Compound 5g, 5-[(β-D-xylopyranosyl)disulfanyl]-2-amino-4-phenylthiazole hydrochloride]",–,–,> 25 µM,> 25 µM,> 25 µM,22 µM,25.3 ± 1 µM,24.9 ± 2.2 µM,> 50 µM
"COc1ccc(-c2nc(N)sc2SS[C@@H]2OC[C@@H](O)[C@H](O)[C@H]2O)cc1 [Compound 5f, 5-[(β-D-xylopyranosyl)disulfanyl]-2-amino-4-(4-methoxyphenyl)thiazole hydrochloride]",–,–,> 25 µM,> 25 µM,> 25 µM,> 25 µM,36.2 ± 2.1 µM,> 50 µM,> 50 µM
Cc1ccc(-c2nc(N)sc2SSc2sc(N)nc2-c2ccc(C)cc2)cc1 [Compound 1e],–,–,–,–,–,–,19.5 ± 2 µM,33.9 ± 3.9 µM,30.7 ± 2.1 µM
"CC(=O)O[C@@H]1[C@@H](OC(C)=O)[C@H](SSc2sc(N)nc2-c2ccccc2)OC[C@H]1OC(C)=O [Compound 4g, 5-[(2,3,4-Tri-O-acetyl-β-D-xylopyranosyl)disulfanyl]-2-amino-4-phenylthiazole]",–,–,> 25 µM,> 25 µM,> 25 µM,> 25 µM,35.7 ± 3 µM,42.1 ± 4.1 µM,34 ± 1.6 µM
Nc1nc(-c2ccc(Br)cc2)c(SSc2sc(N)nc2-c2ccc(Br)cc2)s1 [Compound 1c],–,–,–,–,–,–,3.1 ± 0.4 µM,15.7 ± 2.3 µM,3.4 ± 0.4 µM
"CNC(C)C1CCC(N)C(OC2C(N)CC(N)C(OC3OCC(C)(O)C(NC)C3O)C2O)O1 (centres unmarked) [Gentamicin, reference compound]",–,–,–,–,–,–,–,5.1 ± 0.7 µM,4.3 ± 0.8 µM
"Nc1nc(-c2ccccc2)c(SSc2sc(N)nc2-c2ccccc2)s1 [Compound 1b, bis(2-amino-4-phenyl-5-thiazolyl)disulfide]",–,–,–,–,–,–,6.2 ± 0.6 µM,13.9 ± 1.3 µM,5.2 ± 0.5 µM
Nc1nc(-c2ccc(Cl)cc2)c(SSc2sc(N)nc2-c2ccc(Cl)cc2)s1 [Compound 1d],–,–,–,–,–,–,5 ± 0.4 µM,30.9 ± 3 µM,2.8 ± 0.2 µM
"Cc1ccc(-c2nc(N)sc2SS[C@@H]2O[C@H](CO)[C@@H](O)[C@H](O)[C@H]2O)cc1 [Compound 5e, 5-[(β-D-glucopyranosyl)disulfanyl]-2-amino-4-(p-tolyl)thiazole hydrochloride]",–,–,> 25 µM,> 25 µM,23.5 µM,22.6 µM,38.5 ± 3.4 µM,> 50 µM,> 50 µM
"CC(=O)O[C@@H]1[C@@H](OC(C)=O)[C@H](SSc2sc(N)nc2-c2ccc(C)cc2)OC[C@H]1OC(C)=O [Compound 4j, 5-[(2,3,4-Tri-O-acetyl-β-D-xylopyranosyl)disulfanyl]-2-amino-4-(p-tolyl)thiazole]",–,–,> 25 µM,> 25 µM,23.7 µM,> 25 µM,18.1 ± 1 µM,25.5 ± 2 µM,25 ± 1.4 µM
"Nc1nc(-c2ccccc2)c(SS[C@@H]2O[C@H](CO)[C@@H](O)[C@H](O)[C@H]2O)s1 [Compound 5b, 5-[(β-D-glucopyranosyl)disulfanyl]-2-amino-4-phenylthiazole hydrochloride]",–,–,> 25 µM,> 25 µM,> 25 µM,20.8 µM,> 50 µM,> 50 µM,> 50 µM
"CC(=O)OC[C@H]1O[C@@H](SSc2sc(N)nc2-c2ccccc2)[C@H](OC(C)=O)[C@@H](OC(C)=O)[C@@H]1OC(C)=O [Compound 4b, 5-[(2,3,4,6-Tetra-O-acetyl-β-D-glucopyranosyl)disulfanyl]-2-amino-4-phenylthiazole]",–,–,> 25 µM,> 25 µM,24.1 µM,19 µM,20.5 ± 2.7 µM,31.2 ± 2 µM,28.4 ± 3.1 µM
"Nc1nc(-c2ccc(Cl)cc2)c(SS[C@@H]2OC[C@@H](O)[C@H](O)[C@H]2O)s1 [Compound 5i, 5-[(β-D-xylopyranosyl)disulfanyl]-2-amino-4-(4-clorophenyl)thiazole hydrochloride]",–,–,> 25 µM,> 25 µM,> 25 µM,> 25 µM,13.8 ± 1.2 µM,21 ± 3 µM,13.7 ± 1.1 µM
"COc1ccc(-c2nc(N)sc2SS[C@@H]2O[C@H](CO)[C@@H](O)[C@H](O)[C@H]2O)cc1 [Compound 5a, 5-[(β-D-glucopyranosyl)disulfanyl]-2-amino-4-(4-methoxyphenyl)thiazole hydrochloride]",–,–,> 25 µM,> 25 µM,24.9 µM,> 25 µM,> 50 µM,> 50 µM,> 50 µM
